Measurements taken from patent US20240277698A1, “METHODS OF USING ALDOSTERONE SYNTHASE INHIBITORS” (CINCOR PHARMA, INC., priority 2021, published 2024).

Columns and labels:
[1] = Relative bioavailability of tablet versus oral solution, single 5 mg dose; type: in vivo, human; details: for AUC(0-inf) / AUC(0-t) / Cmax: 5 mg
Experimental: The relative bioavailability of the tablet formulation intended for use in future clinical studies as compared to the oral solution of (R)-compound 1 administered in the SAD and MAD was assessed following a single 5 mg dose of each formulation. Mean (+SD [standard deviation]) plasma concentration-time profiles following administration of the oral solution and tablet formulations are presented in FIG. 9.
Mean (SD) PK parameters of (R)-compound 1 following administration of the oral solution and tablet formulations are presented in Table 12.

[2] = Single-ascending dose (SAD) study in healthy subjects: plasma and urine pharmacokinetics; details: human, in vivo
Experimental: A second, generally lower peak was often observed at 3 to 4 hours postdose.
A second, generally lower peak was often observed at 3 to 4 hours post-dose. […] Over the anticipated therapeutically relevant dose range (through 10 mg), peak and overall exposures (as assessed by Cmax and area under the concentration-time curve [AUC]) increased in a generally dose-proportional manner.
Single- and Multiple-Dose Plasma Pharmacokinetics of (R)-compound 1. The single- and multiple-dose PK profiles of (R)-compound 1 have been characterized in healthy subjects in the Phase 1 studies. FIG. 7 depicts the mean plasma concentration versus time profiles of (R)-compound 1 after administration of single oral doses of (R)-compound 1 ranging from 1 mg to 360 mg (under low salt conditions) and at steady-state over the range of 0.5 mg to 5 mg (under low and/or normal salt conditions). After oral administration, (R)-compound 1 is rapidly absorbed with peak concentrations observed within 3 hours after dosing (range 0.5 to 4 hours).

CCC(=O)N[C@@H]1CCCc2c(-c3ccc4c(c3)CCC(=O)N4C)cncc21 [(R)-Compound 1, (R)—N-(4-(1-methyl-2-oxo-1,2,3,4-tetrahydroquinolin-6-yl)-5,6,7,8-tetrahydroisoquinolin-8-yl)propionamide]
AUC(0-inf) ([1]; human, plasma, oral, tablet, read-out: AUC0-inf, GM (Geo. CV %)): 1670 ng·h/mL | AUC(0-inf) ([1]; human, plasma, oral, tablet, read-out: AUC0-inf, Geo. LS Mean): 1720 ng·h/mL | AUC(0-inf) ([1]; human, plasma, oral, tablet, read-out: AUC0-inf, Mean): 1720 ng·h/mL | AUC(0-t) ([1]; human, plasma, oral, tablet, read-out: AUC0-t, GM (Geo. CV %)): 1580 ng·h/mL | AUC(0-t) ([1]; human, plasma, oral, tablet, read-out: AUC0-t, Geo. LS Mean): 1620 ng·h/mL | AUC(0-t) ([1]; human, plasma, oral, tablet, read-out: AUC0-t, Mean): 1620 ng·h/mL | Cmax ([1]; human, plasma, oral, tablet, read-out: Cmax, GM (Geo. CV %)): 52.3 ng/mL | Cmax ([1]; human, plasma, oral, tablet, read-out: Cmax, Geo. LS Mean): 52.8 ng/mL | Cmax ([1]; human, plasma, oral, tablet, read-out: Cmax, Mean (SD)): 53.1 ng/mL | Tmax ([1]; human, plasma, oral, tablet, read-out: Tmax, Median (min, max)): 3 h | AUC(0-inf) ([1]; human, plasma, po, oral solution, read-out: AUC0-inf, GM (Geo. CV %)): 1710 ng·h/mL | AUC(0-inf) ([1]; human, plasma, po, oral solution, read-out: AUC0-inf, Geo. LS Mean): 1680 ng·h/mL | AUC(0-inf) ([1]; human, plasma, po, oral solution, read-out: AUC0-inf, Mean): 1750 ng·h/mL | AUC(0-t) ([1]; human, plasma, po, oral solution, read-out: AUC0-t, GM (Geo. CV %)): 1610 ng·h/mL | AUC(0-t) ([1]; human, plasma, po, oral solution, read-out: AUC0-t, Geo. LS Mean): 1580 ng·h/mL | AUC(0-t) ([1]; human, plasma, po, oral solution, read-out: AUC0-t, Mean): 1650 ng·h/mL | Cmax ([1]; human, plasma, po, oral solution, read-out: Cmax, GM (Geo. CV %)): 52.7 ng/mL | Cmax ([1]; human, plasma, po, oral solution, read-out: Cmax, Geo. LS Mean): 52.1 ng/mL | AUCextrapolated, GM (Geo. CV %) ([1]; oral solution): 5.018 (56.4) % | AUCextrapolated, Mean (SD) ([1]; oral solution): 5.565 (2.2131) % | Cmax, Mean (SD) ([1]; oral solution): 53.886 (11.6813) ng/mL | Tmax, Median (min, max) ([1]; oral solution): 2.500 (1.00, 3.50) h | AUCextrapolated, GM (Geo. CV %) ([1]; tablet): 4.995 (59.7) % | AUCextrapolated, Mean (SD) ([1]; tablet): 5.600 (2.3669) % | AUC0-inf, Ratio of Geo. LS Means (tablet/solution) ([1]; tablet versus oral solution): 102.2% | AUC0-t, Ratio of Geo. LS Means (tablet/solution) ([1]; tablet versus oral solution): 102.2% | Cmax, Ratio of Geo. LS Means (tablet/solution) ([1]; tablet versus oral solution): 101.2% | CL renal [2]: 4.63 to 7.38 mL/min | Renal clearance as share of total plasma clearance, average [2]: 15.5% | Renal clearance as share of total plasma clearance, range of individual values [2]: 6.53-31.8% | fraction unbound [2]: 0.26 | dose recovered unchanged in the urine ([2]; po): Approximately 110% | half-life ([2]; po): 25 to 31 h | median time (tmax) to maximum observed concentration (Cmax) ([2]; po): 0.5 to 2 h | second, generally lower peak, time postdose ([2]; po): 3 to 4 h | time to peak concentrations, range ([2]; po): 0.5 to 4 h | AUC(0-inf) ([2]; po, 1 mg): 330 ng·h/mL | AUC(0-t) ([2]; po, 1 mg): 147 ng·h/mL | AUCextrapoloated ([2]; po, 1 mg): 1.66% | CL/F ([2]; po, 1 mg): 3270 mL/h | Cmax ([2]; po, 1 mg): 10.1 ng/mL | Tmax ([2]; po, 1 mg): 1 h | Vd/F ([2]; po, 1 mg): 122 L | half-life ([2]; po, 1 mg): 27.4 h | AUC(0-inf) ([2]; po, 3 mg): 1070 ng·h/mL | AUC(0-t) ([2]; po, 3 mg): 491 ng·h/mL | AUCextrapoloated ([2]; po, 3 mg): 1.68% | CL/F ([2]; po, 3 mg): 2820 mL/h | Cmax ([2]; po, 3 mg): 31.9 ng/mL | Tmax ([2]; po, 3 mg): 2 h | Vd/F ([2]; po, 3 mg): 117 L | half-life ([2]; po, 3 mg): 29.1 h | AUC(0-inf) ([2]; po, 10 mg): 3630 ng·h/mL | AUC(0-t) ([2]; po, 10 mg): 1600 ng·h/mL | AUCextrapoloated ([2]; po, 10 mg): 1.37% | CL/F ([2]; po, 10 mg): 2820 mL/h | Cmax ([2]; po, 10 mg): 125 ng/mL | Tmax ([2]; po, 10 mg): 0.5 h | Vd/F ([2]; po, 10 mg): 123 L | half-life ([2]; po, 10 mg): 30.7 h | AUC(0-inf) ([2]; po, 30 mg): 11000 ng·h/mL | AUC(0-t) ([2]; po, 30 mg): 5260 ng·h/mL | AUCextrapoloated ([2]; po, 30 mg): 0.986% | CL/F ([2]; po, 30 mg): 2820 mL/h | Cmax ([2]; po, 30 mg): 386 ng/mL | Tmax ([2]; po, 30 mg): 0.75 h | half-life ([2]; po, 30 mg): 29.4 h | AUC(0-inf) ([2]; po, 90 mg): 32200 ng·h/mL | AUC(0-t) ([2]; po, 90 mg): 18300 ng·h/mL | AUCextrapoloated ([2]; po, 90 mg): 0456% | CL/F ([2]; po, 90 mg): 2830 mL/h | Cmax ([2]; po, 90 mg): 1380 ng/mL | Tmax ([2]; po, 90 mg): 1.25 h | Vd/F ([2]; po, 90 mg): 102 L | half-life ([2]; po, 90 mg): 25.3 h | AUC(0-inf) ([2]; po, 180 mg): 65800 ng·h/mL | AUC(0-t) ([2]; po, 180 mg): 33200 ng·h/mL | AUCextrapoloated ([2]; po, 180 mg): 0.789% | CL/F ([2]; po, 180 mg): 2900 mL/h | Cmax ([2]; po, 180 mg): 2490 ng/mL | Tmax ([2]; po, 180 mg): 1 h | Vd/F ([2]; po, 180 mg): 114 L | half-life ([2]; po, 180 mg): 28 h | AUC(0-inf) ([2]; po, 360 mg): 147000 ng·h/mL | AUC(0-t) ([2]; po, 360 mg): 73200 ng·h/mL | AUCextrapoloated ([2]; po, 360 mg): 0719% | CL/F ([2]; po, 360 mg): 2480 mL/h | Cmax ([2]; po, 360 mg): 5750 ng/mL | Tmax ([2]; po, 360 mg): 0.5 h | half-life ([2]; po, 360 mg): 27.8 h
